System: NCIH929.1 cells
Assay: Cell viability assay for Table 1 (CellTiter-Glo 2.0, ATP quantification, 96 hr)
Assay type: cell-based
Details: NCIH929.1 cell viability, top concentration 1 μM, 10 points half log titration, cytostatic control
Method: Example 171. Cell Viability Assay for Table 1
RPMI 1640 medium, fetal bovine serum (FBS) and 2-mercaptoethanol were purchased from Gibco (Grand Island, N.Y., USA). CellTiter-Glo® 2.0 Assay was purchased from Promega (Madison, Wis., USA). NCIH929.1 cell line was purchased from ATCC (Manassas, Va., USA). Cell culture flasks and 384-well microplates were acquired from VWR (Radnor, Pa., USA).
At the same day of compound treatment, CellTiter-Glo® 2.0 was added to a plate with cells treated in the absence of the test compound to establish Cytostatic control value (Gm).

SMILES	GI50 [nM]
CC(C)(C)OC(=O)N1CCC(n2cc(Cc3ccc4c5c(cccc35)C(=O)N4C3CCC(=O)NC3=O)cn2)CC1 (centres unmarked) [Compound 2, tert-Butyl 4-(4-((1-(2,6-Dioxopiperidin-3-yl)-2-oxo-1,2-dihydrobenzo[cd]indol-6-yl)methyl)-1H-pyrazol-1-yl)piperidine-1-carboxylate]	< 1
CC1(n2cc(Cc3ccc4c5c(cccc35)C(=O)N4C3CCC(=O)NC3=O)cn2)CCN(C(=O)C23C4C5C6C4C2C6C53)CC1 (centres unmarked) [Compound 18, 3-(6-((1-(1-(Cubane-1-carbonyl)-4-methylpiperidin-4-yl)-1H-pyrazol-4-yl)methyl)-2-oxobenzo[cd]indol-1(2H)-yl)piperidine-2,6-dione]	< 1
CC1(C(=O)N2CCC(n3cc(Cc4ccc5c6c(cccc46)C(=O)N5C4CCC(=O)NC4=O)cn3)CC2)CCC1 (centres unmarked) [Compound 4, 3-(6-((1-(1-(1-Methylcyclobutane-1-carbonyl)piperidin-4-yl)-1H-pyrazol-4-yl)methyl)-2-oxobenzo[cd]indol-1(2H)-yl)piperidine-2,6-dione]	< 1
O=C1CCC(N2C(=O)c3cccc4c(Cc5cnn(C6CCN(C(=O)C78C9C%10C%11C9C7C%11C%108)CC6)c5)ccc2c34)C(=O)N1 (centres unmarked) [Compound 3, 3-(6-((1-(1-(Cubane-1-carbonyl)piperidin-4-yl)-1H-pyrazol-4-yl)methyl)-2-oxobenzo[cd]indol-1(2H)-yl)piperidine-2,6-dione]	< 1

System: NCIH929.1 cells
Assay: Cell viability assay for Table 2 (CellTiter-Glo 2.0, ATP quantification, 96 hr)
Assay type: cell-based
Details: 96 h, NCIH929.1 cell viability, 96 hr, top concentration 1 μM, 14 points half log titration; read-out: IC50
Description: Cell Viability Assay for Table 2
CellTiter-Glo® 2.0 Assay was purchased from Promega (Madison, Wis., USA). NCIH929.1 cell line was purchased from ATCC (Manassas, Va., USA). Cell culture flasks and 384-well microplates were acquired from VWR (Radnor, Pa., USA).

SMILES	IC50 [nM]
O=C1CCC(N2C(=O)c3cccc4c(Cc5ccc(CN6CCn7c(nnc7C(F)(F)F)C6)cc5)ccc2c34)C(=O)N1 (centres unmarked) [Compound 121, 3-(2-oxo-6-(4-((3-(trifluoromethyl)-5,6-dihydro-[1,2,4]triazolo[4,3-a]pyrazin-7(8H)-yl)methyl)benzyl)benzo[cd]indol-1(2H)-yl)piperidine-2,6-dione]	< 1
O=C1CCC(N2C(=O)c3cccc4c(Cc5ccc(CN6CCC(c7ccccc7)CC6)cc5)ccc2c34)C(=O)N1 (centres unmarked) [Compound 227, 3-(2-oxo-6-(4-((4-phenylpiperidin-1-yl)methyl)benzyl)benzo[cd]indol-1(2H)-yl)piperidine-2,6-dione]	< 1
CC(C)(C)OC(=O)N1CCC(n2cc(C(N)c3ccc4c5c(cccc35)C(=O)N4C3CCC(=O)NC3=O)cn2)CC1 (centres unmarked) [Compound 154, tert-butyl 4-(4-(amino(1-(2,6-dioxopiperidin-3-yl)-2-oxo-1,2-dihydrobenzo[cd]indol-6-yl)methyl)-1H-pyrazol-1-yl)piperidine-1-carboxylate]	< 1
CC1(n2cc(Cc3ccc4c5c(cccc35)C(=O)N4C3CCC(=O)NC3=O)cn2)CCN(C(=O)C23CCCC(C2)C3)CC1 (centres unmarked) [Compound 89, 3-(6-((1-(1-(bicyclo[3.1.1]heptane-1-carbonyl)-4-methylpiperidin-4-yl)-1H-pyrazol-4-yl)methyl)-2-oxobenzo[cd]indol-1(2H)-yl)piperidine-2,6-dione]	< 1
CC1(C(=O)N2CCN(Cc3ccc(Cc4ccc5c6c(cccc46)C(=O)N5C4CCC(=O)NC4=O)cc3)CC2)CCC1 (centres unmarked) [Compound 110, 3-(6-(4-((4-(1-methylcyclobutane-1-carbonyl)piperazin-1-yl)methyl)benzyl)-2-oxobenzo[cd]indol-1(2H)-yl)piperidine-2,6-dione]	< 1
O=C1CCC(N2C(=O)c3cccc4c(Cc5ccc(CN6Cc7ccccc7C6)cc5)ccc2c34)C(=O)N1 (centres unmarked) [Compound 117, 3-(6-(4-(isoindolin-2-ylmethyl)benzyl)-2-oxobenzo[cd]indol-1(2H)-yl)piperidine-2,6-dione]	< 1
O=C1CCC(N2C(=O)c3cccc4c(Cc5ccc(CN6C7CCC6COC7)cc5)ccc2c34)C(=O)N1 (centres unmarked) [Compound 156, 3-[6-[[4-(3-oxa-8-azabicyclo[3.2.1]octan-8-ylmethyl)phenyl]methyl]-2-oxo-benzo[cd]indol-1-yl]piperidine-2,6-dione]	< 1

Same assay, conditions: NCIH929.1 cell viability, 96 hr, top concentration 1 μM, 14 points half log titration; read-out: IC50

SMILES	IC50 [nM]
O=C1CCC(N2C(=O)c3cccc4c(Cc5ccc(CN6CCN(c7ccc(F)cc7F)CC6)cc5)ccc2c34)C(=O)N1 (single isomer, unassigned) [Compound 257, 3-(6-(4-((4-(2,4-difluorophenyl)piperazin-1-yl)methyl)benzyl)-2-oxobenzo[cd]indol-1(2H)-yl)piperidine-2,6-dione]	< 1
N#Cc1ccc(N2CCN(Cc3cnn(Cc4ccc5c6c(cccc46)C(=O)N5C4CCC(=O)NC4=O)c3)CC2)c(F)c1 (single isomer, unassigned) [Compound 130, 4-[4-[[1-[[1-[2,6-dioxo-3-piperidyl]-2-oxo-benzo[cd]indol-6-yl]methyl]pyrazol-4-yl]methyl]piperazin-1-yl]-3-fluoro-benzonitrile]	< 1
CC(C)(C)OC1CCC(n2cc(Cc3ccc4c5c(cccc35)C(=O)N4C3CCC(=O)NC3=O)cn2)CC1 (centres unmarked) [Compound 213, 3-[6-[[1-(4-tert-butoxycyclohexyl)pyrazol-4-yl]methyl]-2-oxo-benzo[cd]indol-1-yl]piperidine-2,6-dione]	< 1

— US20230082430A1 (C4 Therapeutics, Inc., priority 2019, published 2023)
